We go through 19 molecules from PMC12118597 (Science Advances, 2025).

For assay [1], the target named is T1, SARS-CoV-2 NSP3 macrodomain (Mac1) (Severe acute respiratory syndrome coronavirus 2, UniProt P0DTD1). In words: biochemical. Format: binding.
The target of assay [2] is T1, SARS-CoV-2 NSP3 macrodomain (Mac1). Format: binding. Particulars: for 1-BDC (PanDDA run, DMSO background map): event 1; for 1-BDC: PanDDA background density correction; for Refined ligand occupancy (%): crystallographic refinement; for 2*(1-BDC) (%): occupancy estimate from PanDDA.
The mark [3] stands for this setting: HTRF binding curve, SARS-CoV-2 Mac1.
Where [4] appears, read: SARS CoV-2 macrodomain HTRF assay, dose-response.
[5] abbreviates: crystal soak, 10 mM soak concentration, P43 crystal form.
Where [6] appears, read: ligand-bound crystal structure obtained (TRUE).
[7] abbreviates: site occupied in X-ray crystal structure.
Where [8] appears, read: crystal soak concentration 10 mM.
The mark [9] stands for this setting: crystal soak concentration 10 mM, P43 crystals.

Where two headings read alike, the source gives them in different places.

Molecule `CC1(C)CCC(O)(CNc2ncnc3[nH]ccc23)CC1` [AVI-4310] gave a Hill slope in assay [1] (setting [3]) of 1.3. Besides, in assay [1] (setting [4]), the Hill slope is given as 1.3. Moreover, in assay [2] (crystal soak 10 mM), the “Hit (PanDDA run, DMSO background map)” value is on record as “TRUE” and the “1-BDC (PanDDA run, DMSO background map)” value is 0.14. Further, the “Modeling comment (ligand density)” value in assay [2] (crystal soak 10 mM, PanDDA run, overall) is “Weak density, not modeled”. Also, in assay [2] (setting [5]), the “Hit (PanDDA run, overall)” value is on record as “TRUE”.

On to `OC1(CNc2ncnc3[nH]ccc23)CCCOC1` (stereo not drawn) [AVI-4311], for which the Hill slope in assay [1] (setting [3]) amounted to 1.4. The molecule further gave a Hill slope in assay [1] (setting [4]) of 1.4. Moreover, in assay [2], the 1-BDC came out at 0.25, the “Refined ligand occupancy (%)” value is recorded as 50% and the “2*(1-BDC) (%)” value is reported as 50%. In addition, in assay [2] (crystal soak 10 mM), the “Hit (PanDDA run, DMSO background map)” value is “TRUE” and the “1-BDC (PanDDA run, DMSO background map)” value was 0.25. The “Hit (PanDDA run, overall)” value in assay [2] (setting [5]) is “TRUE”. Also, the X-ray crystal structure result in assay [2] (setting [6]) is reported as “TRUE”. In addition, the Binding site result in assay [2] (setting [7]) is given as “Adenosine”.

In assay [1] (setting [3]), `CC1CCC(O)(CNc2ncnc3[nH]ccc23)CC1` (stereo not drawn) [AVI-4312] showed a Hill slope of 1.2. Also, the Hill slope in assay [1] (setting [4]) came to 1.2. In addition, in assay [2], the 1-BDC was determined as 0.22, the “Refined ligand occupancy (%)” value turned out to be 44% and the “2*(1-BDC) (%)” value is on record as 44%. For the same molecule, the X-ray crystal structure result in assay [2] (setting [6]) is “TRUE”. The Binding site result in assay [2] (setting [7]) is given as “Adenosine”.

Molecule `OC1(CNc2ncnc3[nH]ccc23)COC2CC1C2` (stereo not drawn) [AVI-4313] returned a Hill slope in assay [1] (setting [3]) of 1.2. In addition, the Hill slope in assay [1] (setting [4]) is 1.2. Moreover, in assay [2], the 1-BDC came out at 0.19, the “Refined ligand occupancy (%)” value is 38% and the “2*(1-BDC) (%)” value was 38%. For the same molecule, in assay [2] (setting [6]), the X-ray crystal structure entry was “TRUE”. The Binding site result in assay [2] (setting [7]) was “Adenosine”.

In turn, `OC1(CNc2ncnc3[nH]ccc23)CCOCC1` [AVI-4314] displayed a Hill slope in assay [1] (setting [3]) of 1.2. Besides, the Hill slope in assay [1] (setting [4]) was determined as 1.2. Moreover, in assay [2], the 1-BDC came to 0.15, the “Refined ligand occupancy (%)” value turned out to be 30% and the “2*(1-BDC) (%)” value is reported as 30%. In addition, the X-ray crystal structure entry in assay [2] (setting [6]) was “TRUE”. In assay [2] (setting [7]), the Binding site result is “Adenosine”.

In turn, `O=S1(=O)CCCC(O)(CNc2ncnc3[nH]ccc23)C1` (stereo not drawn) [AVI-4317] registered a Hill slope in assay [1] (setting [3]) of 1.2. For the same molecule, the Hill slope in assay [1] (setting [4]) is on record as 1.2. Also, in assay [2], the 1-BDC is 0.43, the “Refined ligand occupancy (%)” value is 100% and the “2*(1-BDC) (%)” value is 86%. Further, the X-ray crystal structure entry in assay [2] (setting [6]) was “TRUE”. In addition, the Binding site result in assay [2] (setting [7]) is recorded as “Adenosine”.

In the case of `CN(CC1(O)CCOCC1)c1ncnc2[nH]ccc12` [AVI-4318], the Hill slope in assay [1] (setting [3]) was determined as 1.2. In assay [1] (setting [4]), this molecule came in with a Hill slope of 1.2. Further, in assay [2], the 1-BDC was determined as 0.25, the “Refined ligand occupancy (%)” value worked out at 50% and the “2*(1-BDC) (%)” value is 50%. The X-ray crystal structure result in assay [2] (setting [6]) is “TRUE”. In assay [2] (setting [7]), the Binding site result is reported as “Adenosine”.

On to `OC1(CNc2ncnc3[nH]ccc23)CCSCC1` [AVI-4319], for which the Hill slope in assay [1] (setting [3]) was found to be 1.2. The molecule further showed a Hill slope in assay [1] (setting [4]) of 1.2. Further, in assay [2], the 1-BDC was 0.16, the “Refined ligand occupancy (%)” value amounted to 32% and the “2*(1-BDC) (%)” value is 32%. Besides, the X-ray crystal structure entry in assay [2] (setting [6]) is on record as “TRUE”. Further, the Binding site entry in assay [2] (setting [7]) is listed as “Adenosine”.

As to `OC1(CNc2ncnc3[nH]ccc23)CC2CCC1CC2` (stereo not drawn) [AVI-4320], in assay [1] (setting [3]), the Hill slope was 1.1. Besides, the Hill slope in assay [1] (setting [4]) was 1.1. In assay [2], the 1-BDC is listed as 0.14, the “Refined ligand occupancy (%)” value amounted to 28% and the “2*(1-BDC) (%)” value is on record as 28%. For the same molecule, the X-ray crystal structure entry in assay [2] (setting [6]) was “TRUE”. Further, the Binding site result in assay [2] (setting [7]) is listed as “Adenosine”.

In turn, `OC1(CNc2ncnc3[nH]ccc23)CCCSC1` (stereo not drawn) [AVI-4322] registered a Hill slope in assay [1] (setting [3]) of 1.3. This molecule also returned a Hill slope in assay [1] (setting [4]) of 1.3. In addition, in assay [2], the 1-BDC is 0.21, the “Refined ligand occupancy (%)” value was 42% and the “2*(1-BDC) (%)” value is given as 42%. In addition, the X-ray crystal structure result in assay [2] (setting [6]) is listed as “TRUE”. Besides, in assay [2] (setting [7]), the Binding site entry was “Adenosine”.

In turn, `Cc1c[nH]c2ncnc(NCC3(O)CCC(C)(C)CC3)c12` [AVI-4330] yielded a Hill slope in assay [1] (setting [3]) of 1.3. Besides, the Hill slope in assay [1] (setting [4]) is given as 1.3. Besides, in assay [2] (setting [8]), the “Hit (PanDDA run, DMSO background map)” value is recorded as “TRUE” and the “1-BDC (PanDDA run, DMSO background map)” value amounted to 0.11. In assay [2] (setting [9]), the “Hit (PanDDA run, overall)” value is “TRUE” and the “Modeling comment (PanDDA run, overall)” value is recorded as “Weak density, not modeled”.

As for `Cc1c[nH]c2ncnc(NCC3(O)CCC(C)CC3)c12` (stereo not drawn) [AVI-4331], in assay [1] (setting [3]), the Hill slope came to 1.2. In addition, the Hill slope in assay [1] (setting [4]) came out at 1.2. For the same molecule, in assay [2], the 1-BDC came out at 0.27, the “Refined ligand occupancy (%)” value was 54% and the “2*(1-BDC) (%)” value was 54%. Further, in assay [2] (crystal soak 10 mM, P43 crystal form), the “Hit (PanDDA run, overall)” value is “TRUE”. Further, in assay [2] (crystal soak 10 mM), the “Hit (PanDDA run, DMSO background map)” value is given as “TRUE” and the “1-BDC (PanDDA run, DMSO background map)” value worked out at 0.27. For the same molecule, in assay [2] (setting [8]), the “Hit (PanDDA run, DMSO background map)” value is recorded as “TRUE” and the “1-BDC (PanDDA run, DMSO background map)” value was determined as 0.23. For the same molecule, in assay [2] (setting [9]), the “Hit (PanDDA run, overall)” value was “TRUE” and the “Modeling comment (PanDDA run, overall)” value is given as “Duplicate, not modeled”. The X-ray crystal structure result in assay [2] (setting [6]) is recorded as “TRUE”. The Binding site entry in assay [2] (setting [7]) is reported as “Adenosine”.

The molecule `CC(C)(CO)Nc1ncnc2[nH]ccc12` [AVI-5266] had a Hill slope in assay [1] (setting [3]) of 1.1. The molecule also had a Hill slope in assay [1] (setting [4]) of 1.1. For the same molecule, in assay [2], the 1-BDC was determined as 0.12, the “Refined ligand occupancy (%)” value is on record as 40% and the “2*(1-BDC) (%)” value was 24%. The X-ray crystal structure result in assay [2] (TRUE = crystal structure with ligand obtained) was “TRUE”. Further, the Binding site result in assay [2] (site of ligand in X-ray crystal structure) was “Adenosine”.

`CC1(C)CCN(c2ncnc3[nH]ccc23)C(CO)C1` (stereo not drawn) [AVI-5994]: the Hill slope in assay [1] (setting [3]) came to 1.2. For the same molecule, in assay [1] (setting [4]), the Hill slope is recorded as 1.2. Further, in assay [2], the 1-BDC was 0.23, the “Refined ligand occupancy (%)” value was 46% and the “2*(1-BDC) (%)” value was 46%. Besides, the X-ray crystal structure entry in assay [2] (setting [6]) is on record as “TRUE”. In assay [2] (setting [7]), the Binding site entry is “Adenosine”.

`O[C@H]1CC[C@H]2CCN(c3ncnc4[nH]ccc34)[C@H]21` [AVI-5997] registered a Hill slope in assay [1] (setting [3]) of 1.2. Besides, in assay [1] (setting [4]), the Hill slope was determined as 1.2. Besides, in assay [2], the 1-BDC came out at 0.29, the “Refined ligand occupancy (%)” value is recorded as 70% and the “2*(1-BDC) (%)” value is given as 58%. The X-ray crystal structure result in assay [2] (setting [6]) is “TRUE”. In assay [2] (setting [7]), the Binding site result is reported as “Adenosine”.

On to `OCC1C=CCCN1c1ncnc2[nH]ccc12` (stereo not drawn) [AVI-5998], for which the Hill slope in assay [1] (setting [3]) was found to be 1.2. The Hill slope in assay [1] (setting [4]) is 1.2. Further, in assay [2], the 1-BDC stood at 0.19, the “Refined ligand occupancy (%)” value is 38% and the “2*(1-BDC) (%)” value is 38%. In addition, the X-ray crystal structure result in assay [2] (setting [6]) is “TRUE”. Besides, in assay [2] (setting [7]), the Binding site result is reported as “Adenosine”.

For the molecule `OCC1CC=CCN1c1ncnc2[nH]ccc12` (stereo not drawn) [AVI-6002], in assay [1] (setting [3]), the Hill slope is recorded as 1.3. In assay [1] (setting [4]), this molecule showed a Hill slope of 1.3. In assay [2], the 1-BDC is listed as 0.16, the “Refined ligand occupancy (%)” value is 50% and the “2*(1-BDC) (%)” value was 32%. The X-ray crystal structure entry in assay [2] (setting [6]) was “TRUE”. The Binding site result in assay [2] (setting [7]) is given as “Adenosine”.

In the case of `OC1(CNc2ncnc3[nH]ccc23)CCCCC1` [AVI-6217], the Hill slope in assay [1] (setting [3]) is recorded as 1.1. Besides, the Hill slope in assay [1] (setting [4]) came to 1.1. Also, in assay [2], the 1-BDC came out at 0.22, the “Refined ligand occupancy (%)” value is recorded as 60% and the “2*(1-BDC) (%)” value is 44%. Moreover, in assay [2] (setting [6]), the X-ray crystal structure entry was “TRUE”. Besides, the Binding site result in assay [2] (setting [7]) is recorded as “Adenosine”.

Consider `OC1CCC(O)(CNc2ncnc3[nH]ccc23)CC1` (stereo not drawn) [AVI-6220], for which, in assay [1] (setting [3]), the Hill slope turned out to be 1.3. In assay [1] (setting [4]), the Hill slope stood at 1.3. Further, in assay [2], the 1-BDC stood at 0.07, the “Refined ligand occupancy (%)” value turned out to be 14% and the “2*(1-BDC) (%)” value is given as 14%. Besides, the X-ray crystal structure entry in assay [2] (setting [6]) is reported as “TRUE”. Also, the Binding site entry in assay [2] (setting [7]) is on record as “Adenosine”.

As usually defined, the Hill slope is a measure of the steepness of the concentration-response curve.
